The record followed here is US20260137819A1 (Radionetics Oncology, Inc., priority 2022, published 2026).

Some results are limits rather than exact numbers.

The experiment addresses T1, human follicle-stimulating hormone receptor (FSHR) (Homo sapiens, UniProt P23945).
T1 construct: host or cells: CHO-K1
T1 sequence (P23945 18-695): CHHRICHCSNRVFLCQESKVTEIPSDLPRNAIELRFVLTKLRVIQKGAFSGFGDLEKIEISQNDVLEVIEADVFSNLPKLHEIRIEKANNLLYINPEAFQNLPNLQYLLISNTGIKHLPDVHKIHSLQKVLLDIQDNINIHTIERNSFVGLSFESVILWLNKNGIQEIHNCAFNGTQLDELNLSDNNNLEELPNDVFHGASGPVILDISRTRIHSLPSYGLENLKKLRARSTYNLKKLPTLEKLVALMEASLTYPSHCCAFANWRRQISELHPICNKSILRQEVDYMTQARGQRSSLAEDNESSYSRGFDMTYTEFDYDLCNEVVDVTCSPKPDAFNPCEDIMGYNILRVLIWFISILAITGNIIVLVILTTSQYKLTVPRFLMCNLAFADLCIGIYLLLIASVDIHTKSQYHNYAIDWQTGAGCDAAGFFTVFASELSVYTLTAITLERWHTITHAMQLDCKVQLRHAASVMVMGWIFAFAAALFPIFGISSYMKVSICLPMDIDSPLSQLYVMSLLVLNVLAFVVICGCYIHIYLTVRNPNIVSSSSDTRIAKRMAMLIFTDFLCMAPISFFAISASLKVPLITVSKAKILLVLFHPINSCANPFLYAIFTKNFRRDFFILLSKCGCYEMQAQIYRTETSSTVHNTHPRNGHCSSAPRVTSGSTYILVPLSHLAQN
Description: Measurement of agonist cAMP production by activation of human FSHR. The format is cell-based. To be noted: CHO-K1 human FSHR cells, 30 minutes at 37° C., HTRF cAMP kit; read-out: hFSHR Agonist cAMP EC50. The method, then:
Measurement of agonist cAMP production by activation of human FSHR
Two days prior to the assay, 5,000 CHO—K1 human FSHR cells (Eurofins #95-0119C2) stably expressing the functional human follicle-stimulating hormone receptor were plated in a 96-well tissue culture-treated plate in growth media supplemented with the appropriate selection agent. […] The cells were incubated for 30 minutes at 37° C. (the final concentrations of the compound ranged from 0-10,000 nM). After the 30-minute incubation at 37° C., lysis buffer (HRTF CAMP kit, Cisbio #62AM5PEB)w as added directly to the cells and incubated for 30-minutes at room temperature. The diluted lysate was transferred and CAMP detection and visualization antibodies (HRTF CAMP kit, Cisbio #62AM5PEB) were added and incubated for 1-24 hours at room temperature. The time-resolved fluorescent signal was read with a Tecan M1000Pro (Tecan) multiplate reader. The intracellular cAMP concentrations were calculated by regression to a standard curve and were plotted vs. the concentration of the agonists. The concentration of test compound or FSH required to generate a half maximal response EC50 were calculated using standard curve-fitting methods. All data manipulations were performed using GraphPad Prism v9.3.1 (GraphPad, San Diego, CA).
For orientation: cAMP levels reflect the balance of adenylyl cyclase and phosphodiesterase activity.
A word on the EC50: it is the concentration at which the effect is half-maximal. For the compound `COc1cc2c(cc1-c1cccc(NC(=O)CCCCCNC(=O)C(CS(=O)(=O)O)NC(=O)CN3CCN(CC(=O)O)CCN(CC(=O)O)CCN(CC(=O)O)CC3)c1)-c1c(c(C(=O)N3CCOCC3(C)C)nn1-c1cc(Cl)cc(Cl)c1)CO2` (stereo in doubt) [Compound 64, (R)-2,2′,2″-(10-(2-((1-((6-((3-(1-(3,5-dichlorophenyl)-3-(3,3-dimethylmorpholine-4-carbonyl)-7-methoxy-1,4-dihydrochromeno[4,3-c]pyrazol-8-yl)phenyl)amino)-6-oxohexyl)amino)-1-oxo-3-sulfopropan-2-yl)amino)-2-oxoethyl)-1,4,7,10-tetraazacyclododecane-1,4,7-triyl)triacetic acid], the EC50 was under 10 nM.

For `COc1cc2c(cc1-c1cccc(NC(=O)NCCOCCOCCOCCOCCOCCOCCNC(=O)CN3CCN(CC(=O)O)CCN(CC(=O)O)CCN(CC(=O)O)CC3)c1)-c1c(c(C(=O)N(C)C(C)(C)C)nn1-c1cc(Cl)cc(Cl)c1)CO2` [Compound 1, 2,2′,2″-(10-(1-((3-(3-(tert-butyl(methyl)carbamoyl)-1-(3,5-dichlorophenyl)-7-methoxy-1,4-dihydrochromeno[4,3-c]pyrazol-8-yl)phenyl)amino)-1,24-dioxo-5,8,11,14,17,20-hexaoxa-2,23-diazapentacosan-25-yl)-1,4,7,10-tetraazacyclododecane-1,4,7-triyl)triacetic acid], the EC50 is under 10 nM.

In the case of `COc1cc2c(cc1-c1cccc(NC(=O)NCCOCCOCCOCCOCCNC(=O)CN3CCN(CC(=O)O)CCN(CC(=O)O)CCN(CC(=O)O)CC3)c1)-c1c(c(C(=O)N(C)C(C)(C)C)nn1-c1cc(Cl)cc(Cl)c1)CO2` [Compound 2, 2,2′,2″-(10-(1-((3-(3-(tert-butyl(methyl)carbamoyl)-1-(3,5-dichlorophenyl)-7-methoxy-1,4-dihydrochromeno|4,3-c|pyrazol-8-yl)phenyl)amino)-1,18-dioxo-5,8,11,14-tetraoxa-2,17-diazanonadecan-19-yl)-1,4,7,10-tetraazacyclododecane-1,4,7-triyl)triacetic acid], the EC50 was under 10 nM.

Consider `COc1cc2c(cc1-c1cccc(NC(=O)CCOCCOCCOCCOCCOCCOCCNC(=O)CN3CCN(CC(=O)O)CCN(CC(=O)O)CCN(CC(=O)O)CC3)c1)-c1c(c(C(=O)N(C)C(C)(C)C)nn1-c1cc(Cl)cc(Cl)c1)CO2` [Compound 3A, indium (III) 2,2′,2″-(10-(24-((3-(3-(tert-butyl(methyl)carbamoyl)-1-(3,5-dichlorophenyl)-7-methoxy-1,4-dihydrochromeno[4,3-c]pyrazol-8-yl)phenyl)amino)-2,24-dioxo-6,9,12,15,18,21-hexaoxa-3-azatetracosyl)-1,4,7,10-tetraazacyclododecane-1,4,7-triyl)triacetate], for which the EC50 was under 10 nM.

In the case of `COc1cc2c(cc1-c1cccc(C(=O)NCCOCCOCCOCCOCCOCCOCCNC(=O)CN3CCN(CC(=O)O)CCN(CC(=O)O)CCN(CC(=O)O)CC3)c1)-c1c(c(C(=O)N(C)C(C)(C)C)nn1-c1cc(Cl)cc(Cl)c1)CO2` [Compound 4], the EC50 is under 10 nM.

As to `COc1cc2c(cc1-c1ccc(NC(=O)NCCOCCOCCOCCOCCOCCOCCNC(=O)CN3CCN(CC(=O)O)CCN(CC(=O)O)CCN(CC(=O)O)CC3)cc1)-c1c(c(C(=O)N(C)C(C)(C)C)nn1-c1cc(Cl)cc(Cl)c1)CO2` [Compound 5, 2,2′,2″-(10-(1-((4-(3-(tert-butyl(methyl)carbamoyl)-1-(3,5-dichlorophenyl)-7-methoxy-1,4-dihydrochromeno[4,3-c]pyrazol-8-yl)phenyl)amino)-1,24-dioxo-5,8,11,14,17,20-hexaoxa-2,23-diazapentacosan-25-yl)-1,4,7,10-tetraazacyclododecane-1,4,7-triyl)triacetic acid], the EC50 fell in the range of 10 to 100 nM.

For `COc1cc2c(cc1-c1ccc(NC(=O)NCCOCCOCCOCCOCCOCCOCCNC(=O)CN3CCN(CC(=O)O)CCN(CC(=O)O)CCN(CC(=O)O)CC3)cc1)-c1c(c(C(=O)N(C)C(C)(C)C)nn1-c1cc(Cl)cc(Cl)c1)CO2` [Compound 5A, indium (III) 2,2′,2″-(10-(1-((4-(3-(tert-butyl(methyl)carbamoyl)-1-(3,5-dichlorophenyl)-7-methoxy-1,4-dihydrochromeno[4,3-c]pyrazol-8-yl)phenyl)amino)-1,24-dioxo-5,8,11,14,17,20-hexaoxa-2,23-diazapentacosan-25-yl)-1,4,7,10-tetraazacyclododecane-1,4,7-triyl)triacetate], the concentration for a half-maximal effect (EC50) is under 10 nM.

As for `COc1cc2c(cc1-c1ccc(NC(=O)NCCOCCOCCOCCOCCNC(=O)CN3CCN(CC(=O)O)CCN(CC(=O)O)CCN(CC(=O)O)CC3)cc1)-c1c(c(C(=O)N(C)C(C)(C)C)nn1-c1cc(Cl)cc(Cl)c1)CO2` [Compound 6, 2,2′,2″-(10-(1-((4-(3-(tert-butyl(methyl)carbamoyl)-1-(3,5-dichlorophenyl)-7-methoxy-1,4-dihydrochromeno|4,3-clpyrazol-8-yl)phenyl)amino)-1,18-dioxo-5,8,11,14-tetraoxa-2,17-diazanonadecan-19-yl)-1,4,7,10-tetraazacyclododecane-1,4,7-triyl)triacetic acid], the EC50 is under 10 nM.

With `COc1cc2c(cc1-c1cccc(NC(=O)NCCOCCOCCOCCOCCOCCOCCNC(=O)CN3CCN(CC(=O)O)CCN(CC(=O)O)CCN(CC(=O)O)CC3)c1)-c1c(c(C(=O)N3CCOCC3(C)C)nn1-c1cc(Cl)cc(Cl)c1)CO2` [Compound 7], the half-maximal effective concentration (EC50) was under 10 nM.

Take `COc1cc2c(cc1-c1cccc(NC(=O)NCCOCCOCCOCCOCCNC(=O)CN3CCN(CC(=O)O)CCN(CC(=O)O)CCN(CC(=O)O)CC3)c1)-c1c(c(C(=O)N3CCOCC3(C)C)nn1-c1cc(Cl)cc(Cl)c1)CO2` [Compound 8, 2,2′,2″-(10-(1-((3-(1-(3,5-dichlorophenyl)-3-(3,3-dimethylmorpholine-4-carbonyl)-7-methoxy-1,4-dihydrochromeno[4,3-c]pyrazol-8-yl)phenyl)amino)-1,18-dioxo-5,8,11,14-tetraoxa-2,17-diazanonadecan-19-yl)-1,4,7,10-tetraazacyclododecane-1,4,7-triyl)triacetic acid]: the EC50 fell in the range of 10 to 100 nM.

On to `COc1cc2c(cc1-c1cccc(NC(=O)NCCOCCOCCOCCOCCNC(=O)CN3CCN(CC(=O)O)CCN(CC(=O)O)CCN(CC(=O)O)CC3)c1)-c1c(c(C(=O)N3CCOCC3(C)C)nn1-c1cc(Cl)cc(Cl)c1)CO2` [Compound 8A], for which the EC50 is under 10 nM.

For the compound `COc1cc2c(cc1-c1cccc(NC(=O)C3CCN(C(=O)CN4CCN(CC(=O)O)CCN(CC(=O)O)CCN(CC(=O)O)CC4)CC3)c1)-c1c(c(C(=O)N3CCOCC3(C)C)nn1-c1cc(Cl)cc(Cl)c1)CO2` [Compound 9, 2,2′,2″-(10-(2-(4-((3-(1-(3,5-dichlorophenyl)-3-(3,3-dimethylmorpholine-4-carbonyl)-7-methoxy-1,4-dihydrochromeno[4,3-c]pyrazol-8-yl)phenyl)carbamoyl)piperidin-1-yl)-2-oxoethyl)-1,4,7,10-tetraazacyclododecane-1,4,7-triyl)triacetic acid], the EC50 is 10 to 100 nM.
